In brackets after ≈: the same amount, converted by molar mass. Where two headings read alike, the source gives them in different places.

Experiment [1] concerns the target Pseudomonas aeruginosa LpxC enzyme (Pseudomonas aeruginosa (strain ATCC 15692 / DSM 22644 / CIP 104116 / JCM 14847 / LMG 12228 / 1C / PRS 101 / PAO1), UniProt P47205). Nature of the experiment: biochemical. It is filed as biochemical. The following applies: Table 1; read-out: Pseudomonas aeruginosa LpxC IC50.
Experiment [2] relates to Pseudomonas aeruginosa strain TS88 (clinical isolate). Nature of the experiment: Antimicrobial activity, MIC by broth microdilution. Format: cell-based. The conditions noted are these: 18 hours. An excerpt: (§1) Test 3: Evaluation of Antimicrobial Activity For minimum inhibitory concentration (MIC) measurement, the following broth microdilution method was applied as adapted from the standard procedure recommended by the CLSI (Clinical and Laboratory Standards Institute). The bacteria used were Pseudomonas aeruginosa strain TS88 (clinical isolate), E. coli strain ATCC25922, and Klebsiella pneumoniae strain ATCC13883. After culture overnight on a heart infusion agar medium, the cells of a test bacterium were scraped off and suspended to give a turbidity of level 0.5 on the McFarland scale; the suspension was then diluted 10 fold to prepare an inoculum solution. A 0.005 mL aliquot of the inoculum solution was inoculated in a cation-adjusted Mueller-Hinton broth medium containing a test compound and cultured at 35° C. for 18 hours. A minimum drug concentration at which no cell growth was visible to the naked eye was designated as MIC.

Experiment [3] concerns E. coli strain ATCC25922. As to the kind of experiment: Antimicrobial activity, MIC by broth microdilution. The conditions noted are these: Escherichia coli, Table 4, 35° C., 18 hours, read-out: E. coli ATCC 25922 strain MIC. Format: cell-based.
Excerpt: as §1
For orientation: Broth dilution looks for growth in wells or tubes with falling amounts of substance.

Experiment [4] deals with Klebsiella pneumoniae strain ATCC13883. As to the kind of experiment: Antimicrobial activity, MIC by broth microdilution. It is filed as cell-based. The following applies: Table 4, 35° C., 18 hours, read-out: Klebsiella pneumoniae ATCC 13883 strain MIC.
Excerpt: as §1

The mark [5] stands for this setting: Table 1, 35° C., read-out: MIC Pseudomonas aeruginosa TS88 strain.
Where [6] appears, read: Table 4, 35° C., read-out: Pseudomonas aeruginosa TS88 strain MIC.

`CNC(=O)C(C(=O)NO)N(C)C(=O)c1ccc(-c2ccccc2)cc1` (stereo not shown) [Compound 1, 2-[(Biphenyl-4-ylcarbonyl)(methyl)amino]-N-hydroxy-N′-methylpropanediamide]: in experiment [1], the IC50 turned out to be 7.7 nM. For the same molecule, the MIC in experiment [2] (setting [5]) was 0.5 µg/mL (≈ 1.46 µM).

As to `CNC(=O)C(C(=O)NO)N(C)C(=O)c1ccc(-c2ccc(NC)cc2)cc1` (stereo not shown) [Compound 2, N-hydroxy-N′-methyl-2-(methyl {[4′-(methylamino)biphenyl-4-yl]carbonyl}amino)propanediamide], in experiment [1], the IC50 amounted to 7.1 nM. For the same molecule, in experiment [2] (setting [5]), the MIC came to 0.5 µg/mL (≈ 1.35 µM).

In the case of `CNC(=O)C(C(=O)NO)N(C)C(=O)c1ccc(-c2ccc(OC)cc2)cc1` (stereo not shown) [Compound 3], in experiment [1], the IC50 is 3.3 nM. In experiment [2] (setting [5]), the MIC came to 0.5 µg/mL (≈ 1.35 µM).

As to `CNC(=O)C(C(=O)NO)N(C)C(=O)c1ccc(-c2ccc(COC)cc2)cc1` (stereo not shown) [Compound 4, N-hydroxy-2-[{[4′-(methoxymethyl)biphenyl-4-yl]carbonyl}(methyl)amino]-N′-methylpropanediamide], in experiment [1], the IC50 amounted to 6.1 nM. Besides, the MIC in experiment [2] (setting [5]) is 1 µg/mL (≈ 2.59 µM).

For the molecule `CNC(=O)C(C(=O)NO)N(C)C(=O)c1ccc(-c2ccc(C)cc2)cc1` (stereo not shown) [Compound 5, N-hydroxy-N′-methyl-2-{methyl[(4′-methylbiphenyl-4-yl)carbonyl]amino}propanediamide], the IC50 in experiment [1] was found to be 3.7 nM. Besides, the MIC in experiment [2] (setting [5]) turned out to be 0.25 µg/mL (≈ 0.703 µM).

Take `CNC(=O)C(C(=O)NO)N(C)C(=O)c1ccc(-c2ccc(F)cc2)cc1` (stereo not shown) [Compound 6, 2-{[(4′-fluorobiphenyl-4-yl)carbonyl](methyl)amino}-N-hydroxy-N′-methylpropanediamide]: the IC50 in experiment [1] amounted to 7.1 nM. The MIC in experiment [2] (setting [5]) came out at 1 µg/mL (≈ 2.78 µM).

As for `CNC(=O)C(C(=O)NO)N(C)C(=O)c1ccc(-c2ccc(OCCCN3CCOCC3)cc2)cc1.Cc1ccc(S(=O)(=O)O)cc1` (stereo not shown) [Compound 7b, N-hydroxy-N′-methyl-2-[methyl({4′-[3-(morpholin-4-yl)propoxy]biphenyl-4-yl}carbonyl)amino]propanediamide 4-methylbenzenesulfonate], in experiment [2] (setting [5]), the minimal inhibitory concentration (MIC) was determined as 2 µg/mL.

For `CNC(=O)C(C(=O)NO)N(C)C(=O)c1ccc(-c2ccc3c(c2)OCO3)cc1` (stereo not shown) [Compound 8, 2-{[4-(1,3-benzodioxol-5-yl)benzoyl](methyl)amino}-N-hydroxy-N′-methylpropanediamide], the IC50 in experiment [1] stood at 5 nM. Also, the MIC in experiment [2] (setting [5]) was found to be 0.5 µg/mL (≈ 1.3 µM).

`CNC(=O)C(C(=O)NO)N(C)C(=O)c1ccc(-c2ccc3c(c2)CCN3C)cc1` (stereo not shown) [Compound 40, N-hydroxy-N′-methyl-2-{methyl[4-(1-methyl-2,3-dihydro-1H-indol-5-yl)benzoyl]amino}propanediamide]: in experiment [1], the IC50 turned out to be 4.7 nM. In experiment [2] (setting [5]), the minimal inhibitory concentration (MIC) came to 1 µg/mL (≈ 2.52 µM).

In the case of `CNC(=O)C(C(=O)NO)N(C)C(=O)c1ccc(-c2ccc(N(C)C)cc2)cc1` (stereo not shown) [Compound 43, 2-[{[4′-(dimethylamino)biphenyl-4-yl]carbonyl}(methyl)amino]-N-hydroxy-N′-methylpropanediamide], the IC50 in experiment [1] amounted to 7.2 nM. In addition, in experiment [2] (setting [5]), the MIC turned out to be 1 µg/mL (≈ 2.6 µM).

For the molecule `CNC(=O)C(C(=O)NO)N(C)C(=O)c1ccc(-c2ccc(OC(F)(F)F)cc2)cc1` (stereo not shown) [Compound 52, N-hydroxy-N′-methyl-2-(methyl {[4′-(trifluoromethoxy)biphenyl-4-yl]carbonyl}amino)propanediamide], the IC50 in experiment [1] worked out at 4.6 nM. Besides, the minimum inhibitory concentration (MIC) in experiment [2] (setting [5]) amounted to 1 µg/mL (≈ 2.35 µM).

For `CNC(=O)C(C(=O)NO)N(C)C(=O)c1ccc(-c2ccc(C(F)(F)F)cc2)cc1` (stereo not shown) [Compound 56, N-hydroxy-N′-methyl-2-(methyl {[4′-(trifluoromethyl)biphenyl-4-yl]carbonyl}amino)propanediamide], the IC50 in experiment [1] was 6.7 nM. Also, in experiment [2] (setting [5]), the MIC came to 1 µg/mL (≈ 2.44 µM).

As for `CNC(=O)C(C(=O)NO)N(C)C(=O)c1ccc(-c2ccc(NCCCCCN3CCOCC3)cc2)cc1` (stereo not shown) [Compound 58, N-hydroxy-N′-methyl-2-{methyl[(4′-{[5-(morpholin-4-yl)pentyl]amino}biphenyl-4-yl)carbonyl]amino}propanediamide], the IC50 in experiment [1] stood at 8.3 nM. Also, the MIC in experiment [2] (setting [5]) is 4 µg/mL (≈ 7.82 µM).

In the case of `CNC(=O)C(C(=O)NO)N(C)C(=O)c1ccc(-c2ccccc2)c(F)c1` (stereo not shown) [Compound 61, 2-{[(2-fluorobiphenyl-4-yl)carbonyl](methyl)amino}-N-hydroxy-N′-methylpropanediamide], the IC50 in experiment [1] came out at 9.2 nM. The MIC in experiment [2] (setting [5]) was 2 µg/mL (≈ 5.57 µM).

Turning to `CNc1ccc(-c2ccc(C(=O)N(C)C(C(=O)NO)C(=O)NCc3cc(C)on3)cc2)cc1` (stereo not shown) [Compound 77, N-hydroxy-2-(methyl {[4′-(methylamino)biphenyl-4-yl]carbonyl}amino)-N′-[(5-methyl-1,2-oxazol-3-yl)methyl]propanediamide], in experiment [1], the IC50 is 7.5 nM. Also, in experiment [2] (setting [5]), the MIC was determined as 4 µg/mL (≈ 8.86 µM).

`CNC(=O)C(C(=O)NO)N(C)C(=O)c1ccc(-c2ccc3c(c2)OC(OC)O3)cc1` (stereo not shown) [Compound 94, N-hydroxy-2-{[4-(2-methoxy-1,3-benzodioxol-5-yl)benzoyl](methyl)amino}-N′-methylpropanediamide]: in experiment [1], the IC50 came out at 5.6 nM. For the same molecule, in experiment [2] (setting [5]), the minimum inhibitory concentration (MIC) turned out to be 2 µg/mL (≈ 4.81 µM).

Take `CNC(=O)C(C(=O)NO)N(C)C(=O)c1ccc(-c2ccc(OCCO)cc2)cc1` (stereo not shown) [Compound 153, N-hydroxy-2-[{[4′-(2-hydroxyethoxy)biphenyl-4-yl]carbonyl}(methyl)amino]-N′-methylpropanediamide]: the IC50 in experiment [1] was 5.7 nM. In addition, the minimal inhibitory concentration (MIC) in experiment [2] (setting [5]) turned out to be 2 µg/mL (≈ 4.98 µM).

In the case of `Cc1cc(CNC(=O)C(C(=O)NO)N(C)C(=O)c2ccc(-c3ccccc3)cc2)no1` (stereo not shown) [Compound 172, 2-[(Biphenyl-4-ylcarbonyl)(methyl)amino]-N-hydroxy-N′-[(5-methyl-1,2-oxazol-3-yl)methyl]propanediamide], in experiment [1], the IC50 turned out to be 7.1 nM. Further, the MIC in experiment [2] (setting [5]) came out at 2 µg/mL (≈ 4.73 µM).

`CNC(=O)C(C(=O)NO)N(C)C(=O)c1ccc(-c2ccc3c(c2)CCO3)cc1` (stereo not shown) [Compound 188, 2-{[4-(2,3-dihydro-1-benzofuran-5-yl)benzoyl](methyl)amino}-N-hydroxy-N′-methylpropanediamide]: the IC50 in experiment [1] worked out at 5 nM. For the same molecule, the MIC in experiment [2] (setting [5]) worked out at 0.5 µg/mL (≈ 1.3 µM).

As for `CNC(=O)C(C(=O)NO)N(C)C(=O)c1ccc(C#Cc2ccccc2)cc1` (stereo not shown) [Compound 218, N-hydroxy-N′-methyl-2-{methyl[4-(phenylethynyl)benzoyl]amino}propanediamide], in experiment [1], the IC50 stood at 7.2 nM. The MIC in experiment [2] (setting [5]) turned out to be 1 µg/mL (≈ 2.74 µM).

Consider `CNC(=O)C(C(=O)NO)N(C)C(=O)c1ccc(-c2ccc(CF)cc2)cc1` (stereo not shown) [Compound 237, 2-[{[4′-(fluoromethyl)biphenyl-4-yl]carbonyl}(methyl)amino]-N-hydroxy-N′-methylpropanediamide], for which the IC50 in experiment [1] is 4.5 nM. For the same molecule, the MIC in experiment [2] (setting [5]) worked out at 0.5 µg/mL (≈ 1.34 µM).

As for `CNC(=O)C(C(=O)NO)N(C)C(=O)c1ccc(-c2ccc3c(c2)OCC3)cc1` (stereo not shown) [Compound 271, 2-{[4-(2,3-dihydro-1-benzofuran-6-yl)benzoyl](methyl)amino}-N-hydroxy-N′-methylpropanediamide], the IC50 in experiment [1] was found to be 5 nM. Besides, the MIC in experiment [2] (setting [5]) is 0.5 µg/mL (≈ 1.3 µM).

Take `CNC(=O)[C@@](C)(C(=O)NO)N(C)C(=O)c1ccc(-c2ccc(SC)cc2)cc1` [Compound 406, (2S)-N-hydroxy-N′,2-dimethyl-2-(methyl {[4′-(methylsulfanyl)biphenyl-4-yl]carbonyl}amino)propanediamide]: the minimum inhibitory concentration (MIC) in experiment [3] stood at 0.125 µg/mL (≈ 0.311 µM); in experiment [4], 0.5 µg/mL (≈ 1.25 µM); in experiment [2] (setting [6]), 0.5 µg/mL (≈ 1.25 µM).

As for `CNC(=O)[C@@](C)(C(=O)NO)N(C)C(=O)c1ccc(C#Cc2ccc(CN3CC4(COC4)C3)cc2)cc1` [Compound 416, (2S)-N-hydroxy-N′,2-dimethyl-2-{methyl[(4-{[4-(2-oxa-6-azaspiro[3.3]hept-6-ylmethyl)phenyl]ethynyl}phenyl)carbonyl]amino}propanediamide], the MIC in experiment [3] is 0.5 µg/mL (≈ 1.02 µM); in experiment [4], 2 µg/mL (≈ 4.08 µM); in experiment [2] (setting [6]) it was 1 µg/mL (≈ 2.04 µM).

As for `CNC(=O)[C@@](C)(C(=O)NO)N(C)C(=O)c1ccc(C#Cc2ccc(CNCc3ccco3)cc2)cc1` [Compound 417, (2S)-2-[({4-[(4-{[(furan-2-ylmethyl)amino]methyl}phenyl)ethynyl]phenyl}carbonyl)(methyl)amino]-N-hydroxy-N′,2-dimethylpropanediamide], the figures for the MIC in experiment [3], in experiment [4] and in experiment [2] (setting [6]) were 0.0625 µg/mL (≈ 0.128 µM), 0.25 µg/mL (≈ 0.512 µM) and 0.5 µg/mL (≈ 1.02 µM), respectively.

With `CNC(=O)[C@@](C)(C(=O)NO)N(C)C(=O)c1ccc(C#Cc2ccc(C3(NC)CC3)cc2)cc1` [Compound 435, (2S)-N-hydroxy-N′,2-dimethyl-2-(methyl {[4-({4-[1-(methylamino)cyclopropyl]phenyl}ethynyl)phenyl]carbonyl}amino)propanediamide], the MIC in experiment [3] turned out to be 1 µg/mL (≈ 2.23 µM); in experiment [4] it was 2 µg/mL (≈ 4.46 µM); in experiment [2] (setting [6]), 1 µg/mL (≈ 2.23 µM).

For the molecule `CNC(=O)[C@@](C)(C(=O)NO)N(C)C(=O)c1ccc(C#Cc2ccc(CNC3CC3)cc2)cc1` [Compound 553, (2S)-2-[{[4-({4-[(cyclopropylamino)methyl]phenyl}ethynyl)phenyl]carbonyl}(methyl)amino]-N-hydroxy-N′,2-dimethylpropanediamide], the MIC in experiment [3] came out at 0.25 µg/mL (≈ 0.557 µM); in experiment [4], 0.5 µg/mL (≈ 1.11 µM); in experiment [2] (setting [6]), 0.5 µg/mL (≈ 1.11 µM).

The IC50 is the midpoint of a concentration-inhibition curve. As usually defined, the MIC is the lowest concentration found to suppress growth.

The values above are taken from patent US9073821B2, “Hydroxamic acid derivative” (priority 2010, dated 2015).
